Reference: patent US20210094922A1, “Dyes for Analysis of Soluble Protein Aggregates or Misfolded Protein Oligomers” (The Penn State Research Foundation, priority 2018, published 2021)

Biological target: T1, Htt-110Q-Halo (Homo sapiens, UniProt P42858)
T1 construct: using the Huntingtin exon 1 protein (Htt) with expansion of a polyglutamine tract within its N-terminal domain; expressed in transfected cells; host or cells: HEK293T
Assay: Two-color imaging of Htt-110Q-Halo in HEK293T cells
Assay type: cell-based
From the text: (B-C) Excitation and emission spectra of 4 (with misfolded oligomers of SOD1-A4V-Halo) and 5 (with insoluble aggregates of SOD1-A4V-Halo).
Combination of 4 and 5 enables a two-color imaging strategy to differentiate insoluble aggregates from soluble oligomers. The inventors carried out live cell imaging experiments, wherein 4 or 5 was used to visualize aggregation of POI-Halo fusion proteins in HEK293T cells. […] To this end, the inventors labeled HEK293T cells expressing SOD1-A4V-Halo simultaneously with 4 and 5 (both at 0.5 μM) for 24 h and treated cells with 5 μM MG132 for 8 h. […] The inventors further carried out experiments using Htt-PolyQ with 110 glutamine repeats (Htt-110Q-Halo).

T1 sequence (P42858 with tags, fused parts or gaps): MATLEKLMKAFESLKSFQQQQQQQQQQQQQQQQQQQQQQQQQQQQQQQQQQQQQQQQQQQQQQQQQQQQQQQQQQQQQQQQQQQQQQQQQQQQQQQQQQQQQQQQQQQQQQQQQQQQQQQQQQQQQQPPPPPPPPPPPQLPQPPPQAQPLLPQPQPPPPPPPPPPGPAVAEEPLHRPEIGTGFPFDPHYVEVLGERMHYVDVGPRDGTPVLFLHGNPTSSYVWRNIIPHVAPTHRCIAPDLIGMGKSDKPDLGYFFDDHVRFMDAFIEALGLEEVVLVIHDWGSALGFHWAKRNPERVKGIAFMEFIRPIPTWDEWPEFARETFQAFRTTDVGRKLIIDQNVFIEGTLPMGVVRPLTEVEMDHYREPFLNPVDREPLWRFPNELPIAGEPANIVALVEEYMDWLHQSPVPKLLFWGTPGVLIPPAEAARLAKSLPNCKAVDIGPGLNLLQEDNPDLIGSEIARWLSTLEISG

`CN(C)c1ccc(/C=C2N=C(/C=C/c3ccc(N(CCO)CCO)cc3)N(CC(=O)N[C@H]3CC[C@H](C(=O)NCCOCCOCCCCCCCl)CC3)C\2=O)cc1` [Compound 4, (1r,4r)-4-(2-((Z)-2-((E)-4-(bis(2-hydroxyethyl)amino)styryl)-4-(4-(dimethylamino)benzylidene)-5-oxo-4,5-dihydro-1H-imidazol-1-yl)acetamido)-N-(2-(2-((6-chlorohexyl)oxy)ethoxy)ethyl)cyclohexanecarboxamide] was tested. Which “fluorescence of Htt-110Q-Halo inclusions” value did it give?
Its value is “exhibit fluorescence from both 4 and 5”.
